Assay results taken from patent publication US20060263802A1 (priority 2003, published 2006).

What was measured:
Type in all cases: binding
[1] = test system: human monoclonal antibody CRJB
[2] = test system: human monoclonal antibody CR57
[3] = test system: human monoclonal antibody CRJA
[4] = test system: human monoclonal antibody CRJB; remark: listed apart in the source
[5] = test system: human monoclonal antibody CR57; remark: listed apart in the source
[6] = test system: human monoclonal antibody CRJA; remark: listed apart in the source

| Sequence | Binding of CRJB to linear peptide (PEPSCAN-ELISA signal) [1] | Binding of CR57 to linear peptide (PEPSCAN-ELISA signal) [2] | Binding of CRJA to linear peptide (PEPSCAN-ELISA signal) [3] | Binding of CRJB (10 μg/ml) to looped/cyclic peptide (PEPSCAN-ELISA signal) [4] | Binding of CR57 (10 μg/ml) to looped/cyclic peptide (PEPSCAN-ELISA signal) [5] | Binding of CRJA (10 μg/ml) to looped/cyclic peptide (PEPSCAN-ELISA signal) [6] | Binding of CRJB (10 μg/ml) to looped/cyclic peptide (PEPSCAN-ELISA) [4] | Binding of CR57 (10 μg/ml) to looped/cyclic peptide (PEPSCAN-ELISA) [5] | Binding of CRJA (10 μg/ml) to looped/cyclic peptide (PEPSCAN-ELISA) [6] |
| --- | --- | --- | --- | --- | --- | --- | --- | --- | --- |
| DKLGPWSPIDIHHLS | 103 | 62 | 78 | 70 | 104 | 89 | – | – | – |
| HFRPTPDACRAAYNW | 113 | 46 | 93 | 71 | 65 | 62 | – | – | – |
| TYCSTNHDYTIWMPE | 107 | 96 | 87 | 93 | 104 | 97 | – | – | – |
| ISPSVADLDPYDRSL | 119 | 50 | 56 | 64 | 66 | 46 | – | – | – |
| RKLVPGFGKAYTIFN | 115 | 47 | 48 | – | – | – | 79 | 52 | 44 |
| GLYKSLKGACKLKLC | 129 | 94 | 91 | – | – | – | 97 | 86 | 100 |
| KTTKESLVIISPSVA | 112 | 101 | 82 | 75 | 111 | 104 | – | – | – |
| GDPRYEESLHNPYPD | 98 | 36 | 96 | 82 | 64 | 90 | – | – | – |
| PGFGKAYTIFNKTLM | 113 | 78 | 118 | – | – | – | 79 | 110 | 94 |
| EMQSSLLQQHMELLE | 129 | 58 | 94 | – | – | – | 98 | 78 | 88 |
| GKRASKGSETCGFVD | 124 | 92 | 97 | – | – | – | 71 | 82 | 93 |
| KSLKGACKLKLCGVL | 113 | 129 | 91 | – | – | – | 97 | 106 | 113 |
| VADLDPYDRSLHSRV | 113 | 71 | 92 | 74 | 85 | 89 | – | – | – |
| RPTPDACRAAYNWKM | 101 | 77 | 123 | 51 | 76 | 96 | – | – | – |
| VNLHDFRSDEIEHLV | 129 | 83 | 103 | – | – | – | 56 | 97 | 84 |
